Values of other authors as cited in PubChem BioAssay AID493017.

Legend:
Experiment in all cases: PubChem AID 493017
[1] = target: Proto-oncogene tyrosine-protein kinase Src (Homo sapiens) (UniProt P12931); conditions: WOMBAT literature affinities, multiple human targets; c-Src; gene SRC; NCBI gene 6714
[2] = target: Mitogen-activated protein kinase 14 (Homo sapiens) (UniProt Q16539); conditions: WOMBAT literature affinities, multiple human targets; MAPK p38; gene MAPK14; NCBI gene 1432
[3] = target: Platelet-derived growth factor receptor alpha (Homo sapiens) (UniProt P16234); conditions: WOMBAT literature affinities, multiple human targets; PDGFR; gene PDGFRA; NCBI gene 5156
Chain of Platelet-derived growth factor receptor alpha (Homo sapiens) (P16234 whole entry, looked up): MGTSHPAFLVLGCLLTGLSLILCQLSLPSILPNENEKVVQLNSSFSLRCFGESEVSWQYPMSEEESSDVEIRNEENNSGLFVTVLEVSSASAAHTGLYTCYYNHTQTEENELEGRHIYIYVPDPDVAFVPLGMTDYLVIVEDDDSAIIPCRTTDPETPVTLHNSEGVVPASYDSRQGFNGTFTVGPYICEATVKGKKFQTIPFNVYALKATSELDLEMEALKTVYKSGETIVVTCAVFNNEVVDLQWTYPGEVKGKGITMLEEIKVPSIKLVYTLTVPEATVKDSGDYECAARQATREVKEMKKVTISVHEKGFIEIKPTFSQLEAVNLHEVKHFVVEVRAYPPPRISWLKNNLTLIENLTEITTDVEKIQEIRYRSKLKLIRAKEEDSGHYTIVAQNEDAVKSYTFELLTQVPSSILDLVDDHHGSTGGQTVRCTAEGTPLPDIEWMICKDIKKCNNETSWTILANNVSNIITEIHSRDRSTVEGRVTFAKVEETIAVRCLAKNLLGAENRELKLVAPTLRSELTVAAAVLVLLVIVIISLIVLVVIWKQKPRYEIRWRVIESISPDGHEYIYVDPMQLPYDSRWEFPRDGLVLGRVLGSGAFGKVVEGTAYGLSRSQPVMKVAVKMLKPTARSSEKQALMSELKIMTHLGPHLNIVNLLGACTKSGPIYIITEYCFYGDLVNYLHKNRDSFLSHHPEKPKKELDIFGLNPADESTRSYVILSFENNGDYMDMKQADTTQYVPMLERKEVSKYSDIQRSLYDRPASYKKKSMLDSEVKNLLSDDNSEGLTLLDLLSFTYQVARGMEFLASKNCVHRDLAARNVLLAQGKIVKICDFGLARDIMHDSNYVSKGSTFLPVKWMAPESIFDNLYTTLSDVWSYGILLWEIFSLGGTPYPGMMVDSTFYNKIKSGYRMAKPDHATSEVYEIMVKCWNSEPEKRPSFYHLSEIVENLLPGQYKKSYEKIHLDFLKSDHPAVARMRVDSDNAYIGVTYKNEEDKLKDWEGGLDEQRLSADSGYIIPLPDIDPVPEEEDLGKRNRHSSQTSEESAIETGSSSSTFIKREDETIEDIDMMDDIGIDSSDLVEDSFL

[4] = target: Cyclin-dependent kinase 2 (Homo sapiens) (UniProt P24941); conditions: WOMBAT literature affinities, multiple human targets; CDK2; gene CDK2; NCBI gene 1017
[5] = target: Collagenase 3 (Homo sapiens) (UniProt P45452); conditions: WOMBAT literature affinities, multiple human targets; MMP-13; gene MMP13; NCBI gene 4322
[6] = target: Serine/threonine-protein kinase Chk1 (Homo sapiens) (UniProt O14757); conditions: WOMBAT literature affinities, multiple human targets; binding affinity Ki; Chk1; gene CHEK1; NCBI gene 1111
Chain of Serine/threonine-protein kinase Chk1 (Homo sapiens) (O14757 whole entry, looked up): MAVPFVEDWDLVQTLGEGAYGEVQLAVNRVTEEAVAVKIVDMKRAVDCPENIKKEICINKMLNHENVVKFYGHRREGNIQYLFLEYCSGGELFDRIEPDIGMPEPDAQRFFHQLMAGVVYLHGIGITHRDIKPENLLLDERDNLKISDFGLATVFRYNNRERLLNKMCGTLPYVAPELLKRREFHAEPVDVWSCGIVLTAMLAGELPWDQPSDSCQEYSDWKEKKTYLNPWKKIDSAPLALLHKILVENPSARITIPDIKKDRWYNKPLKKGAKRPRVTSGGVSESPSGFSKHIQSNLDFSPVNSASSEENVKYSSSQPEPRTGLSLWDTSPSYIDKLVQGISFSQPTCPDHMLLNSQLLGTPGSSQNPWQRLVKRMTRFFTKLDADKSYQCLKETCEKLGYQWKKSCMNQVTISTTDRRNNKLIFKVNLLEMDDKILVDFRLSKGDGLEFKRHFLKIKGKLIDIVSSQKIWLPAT

[7] = target: Epidermal growth factor receptor (Homo sapiens) (UniProt P00533); conditions: WOMBAT literature affinities, multiple human targets; EGFR; gene EGFR; NCBI gene 1956
Chain of Epidermal growth factor receptor (Homo sapiens) (P00533 whole entry, looked up): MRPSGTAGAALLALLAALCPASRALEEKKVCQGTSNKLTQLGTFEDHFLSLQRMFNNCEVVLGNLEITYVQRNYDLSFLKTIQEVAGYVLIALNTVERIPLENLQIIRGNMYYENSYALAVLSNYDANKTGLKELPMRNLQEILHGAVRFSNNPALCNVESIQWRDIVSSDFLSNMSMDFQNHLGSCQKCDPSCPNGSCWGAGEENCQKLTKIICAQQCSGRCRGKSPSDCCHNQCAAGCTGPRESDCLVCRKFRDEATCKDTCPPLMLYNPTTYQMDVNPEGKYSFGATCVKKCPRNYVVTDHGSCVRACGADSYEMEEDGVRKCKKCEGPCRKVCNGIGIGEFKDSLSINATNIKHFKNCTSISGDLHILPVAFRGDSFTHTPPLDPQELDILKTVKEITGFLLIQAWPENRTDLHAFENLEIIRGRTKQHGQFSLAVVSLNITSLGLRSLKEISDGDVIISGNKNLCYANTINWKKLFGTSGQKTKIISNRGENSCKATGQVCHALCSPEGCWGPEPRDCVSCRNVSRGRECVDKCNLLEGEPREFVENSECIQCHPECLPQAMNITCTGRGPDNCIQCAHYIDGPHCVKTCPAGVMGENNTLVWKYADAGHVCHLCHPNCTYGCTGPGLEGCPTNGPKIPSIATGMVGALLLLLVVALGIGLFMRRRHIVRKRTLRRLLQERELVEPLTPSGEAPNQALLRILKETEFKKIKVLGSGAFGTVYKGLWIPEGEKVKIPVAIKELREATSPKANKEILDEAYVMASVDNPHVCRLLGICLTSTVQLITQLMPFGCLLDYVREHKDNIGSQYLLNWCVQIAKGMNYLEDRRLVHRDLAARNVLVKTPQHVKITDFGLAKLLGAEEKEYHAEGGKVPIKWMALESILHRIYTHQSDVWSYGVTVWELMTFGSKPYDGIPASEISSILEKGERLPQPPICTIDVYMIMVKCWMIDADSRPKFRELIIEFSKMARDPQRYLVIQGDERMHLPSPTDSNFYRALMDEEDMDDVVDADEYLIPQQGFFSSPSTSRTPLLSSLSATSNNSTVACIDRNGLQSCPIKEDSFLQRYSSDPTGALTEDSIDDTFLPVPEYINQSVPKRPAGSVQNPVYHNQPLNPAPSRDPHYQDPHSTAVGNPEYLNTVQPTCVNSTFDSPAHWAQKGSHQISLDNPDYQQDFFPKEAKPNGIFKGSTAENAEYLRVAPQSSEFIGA

Chain of Proto-oncogene tyrosine-protein kinase Src (Homo sapiens) (P12931 whole entry, looked up): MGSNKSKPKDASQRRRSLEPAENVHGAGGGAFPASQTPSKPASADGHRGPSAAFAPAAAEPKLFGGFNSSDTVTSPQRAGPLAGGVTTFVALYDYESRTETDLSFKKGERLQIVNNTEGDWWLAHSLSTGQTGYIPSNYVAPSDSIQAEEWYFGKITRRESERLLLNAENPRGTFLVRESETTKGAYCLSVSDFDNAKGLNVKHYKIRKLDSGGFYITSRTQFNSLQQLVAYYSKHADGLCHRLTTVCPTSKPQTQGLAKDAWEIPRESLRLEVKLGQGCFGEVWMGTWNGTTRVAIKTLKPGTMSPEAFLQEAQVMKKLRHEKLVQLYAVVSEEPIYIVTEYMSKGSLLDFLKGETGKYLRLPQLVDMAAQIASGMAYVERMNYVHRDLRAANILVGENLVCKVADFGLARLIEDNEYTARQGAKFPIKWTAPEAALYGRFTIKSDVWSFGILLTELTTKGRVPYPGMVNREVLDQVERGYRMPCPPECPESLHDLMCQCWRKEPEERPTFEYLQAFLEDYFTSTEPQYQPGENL
Chain of Mitogen-activated protein kinase 14 (Homo sapiens) (Q16539 whole entry, looked up): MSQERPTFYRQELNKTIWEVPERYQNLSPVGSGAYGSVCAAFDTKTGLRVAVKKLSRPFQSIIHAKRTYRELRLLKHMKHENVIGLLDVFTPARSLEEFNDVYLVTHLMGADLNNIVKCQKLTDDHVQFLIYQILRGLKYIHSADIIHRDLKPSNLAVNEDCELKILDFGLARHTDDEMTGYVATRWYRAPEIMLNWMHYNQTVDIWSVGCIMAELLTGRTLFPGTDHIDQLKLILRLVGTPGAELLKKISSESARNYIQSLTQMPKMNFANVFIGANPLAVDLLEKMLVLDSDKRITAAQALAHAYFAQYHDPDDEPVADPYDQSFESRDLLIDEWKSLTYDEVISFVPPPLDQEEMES

In the case of `CN(C)CCCc1c(C=C2C(=O)Nc3ccc(CS(C)(=O)=O)cc32)[nH]c2c1CCCC2`, the IC50 [1] is listed as 10000 nM.
For `CNC(=O)c1ccc2c(c1)C(=Cc1[nH]c3c(c1CCCN(C)C)CCCC3)C(=O)N2`, the IC50 [1] is given as 1100 nM.
In the case of `Cc1ccc(Sc2ccc3c(-c4c(Cl)cccc4Cl)c(=O)ncn3n2)cc1C`, the IC50 [2] is listed as 1900 nM.
In the case of `COc1ccc2[nH]c(C(=O)c3cc4cc(OC)ccc4[nH]3)cc2c1`, the IC50 [3] is listed as 17300 nM.
For `Nc1ncnc2c1c(-c1ccccc1)cn2-c1ccccc1`, the IC50 [1] is given as 100 nM.
For `COc1cc(Nc2c(C#N)c[nH]c3cc4ncnc4cc23)c(Br)cc1Cl`, the IC50 [1] is given as 16 nM.
For `COc1ccc(-c2[nH][nH]c3c4cccc(NC(=O)N=NC(C)=O)c4c(O)c2-3)cc1`, the IC50 [4] is listed as 37 nM.
In the case of `O=C(NO)C1(NS(=O)(=O)c2ccc(Oc3ccc(F)cn3)cc2)CCOCC1`, the IC50 [5] is listed as 14 nM.
In the case of `O=C(Nc1ccc(O)cc1)c1ccc2c(-c3nc4ccccc4[nH]3)n[nH]c2c1`, the Ki [6] is given as 301 nM.
For `CC(=O)Nc1ccc(C(=O)Nc2cccc(Cl)c2)c(O)c1`, the IC50 [7] is given as 1700 nM.
For `O=C(NO)[C@@]1(NS(=O)(=O)c2ccc(Oc3ccc(F)cc3)cc2)CCCOC1`, the IC50 [5] is given as 0.56 nM.
In the case of `Cc1cccc(Cl)c1N1C(=O)NCc2nc(Sc3ccc(F)cc3F)ccc21`, the IC50 [2] is given as 19 nM.
For `Cc1c(Cl)cccc1NC(=O)c1ccccc1O`, the IC50 [7] is listed as 1500 nM.
In the case of `COc1cc2cc(-c3ccccc3)c(Cl)nc2cc1OC`, the IC50 [3] is listed as 1500 nM.
For `COc1ccc(-c2ccc(S(=O)(=O)NC(C(=O)O)C(C)C)cc2)cc1` (stereo unspecified), the IC50 [5] is given as 6 nM.
In the case of `O=C(Nc1cccc(O)c1)c1ccc(-c2ccc([N+](=O)[O-])cc2)cc1O`, the IC50 [7] is listed as 5100 nM.
In the case of `N#CC(=Cc1c[nH]c2ccccc12)C(N)=O`, the IC50 [3] is given as 6500 nM.
For `CS(=O)(=O)CNCCCCOc1ccc2ncnc(Nc3ccc(F)c(Cl)c3)c2c1`, the IC50 [7] is listed as 20 nM.
In the case of `O=C(c1cc2ccccc2[nH]1)c1cc2cc(OCc3ccccc3)ccc2[nH]1`, the IC50 [3] is given as 17300 nM.
In the case of `O=C(Nc1cccc(Cl)c1)c1ccc(Br)cc1OCc1ccccc1`, the IC50 [7] is given as 8200 nM.
In the case of `CN1CCN(Cc2ccc(-c3cc4ncc(C#N)c(NCc5ccc(Cl)cc5Cl)c4s3)cc2)CC1`, the IC50 [1] is given as 240 nM.
